Source: EP0897904B1, “Fungicidal 2-methoxybenzophenones” (BASF AKTIENGESELLSCHAFT, priority 1997, dated 1999)

System: Blumeria (Erysiphe) graminis DC. f.sp. tritici E. Marchal
Experiment: Foliar systemicity test, wheat powdery mildew (band application on leaf)
Assay type: in vivo
Settings: typically 400 ppm
Excerpt: Wheat Powdery Mildew (WPM): HOST: Wheat (Triticum aestivum L.) variety Kanzler PATHOGEN: Blumeria (Erysiphe) graminis DC. f.sp. tritici E. Marchal
• 1. Wheat seed (8/pot) is planted in 8 cm diameter plastic pots in the greenhouse. • 2. When the primary leaf is fully expanded, the plants are cut back to four in each pot of which two are marked with a permanent marker 5 cm below the leaf tip on the upper leaf surface. Thus there are two band-treated and two untreated plants in each pot. • 3. A pipette is used to apply 5 µl of the formulated compound in a band on the lower leaf surface opposite the mark. The application band should cover the whole leaf width. After application, the plants are not moved until the bands are dry (half an hour or so later). • 4. After treated plants have dried, they are moved to the greenhouse and kept there for 2 days to allow for movement of the compounds. The plants are maintained with bottom watering. • 5. Two days after application, the plants are inoculated by dusting them with powdery mildew conidia in the greenhouse. Evaluations are typically made 7 - 8 days after inoculation.
Three types of compound movement are assessed by evaluating disease in three areas of each band-treated leaf. Translaminar movement: The percent disease area is assessed for the translaminar band area (marked area of the upper leaf surface directly opposite where band was applied on the lower leaf surface; width of band approximately 5 mm). Translaminar disease control is then calculated using the following formula: % disease control = 100 -(% disease in treated plants)/(% disease in untreated plants)x 100 [formula]
Distal movement and proximal movement: The distal and proximal disease-free zones on the upper leaf surface are measured in mm. The distal direction is from the band toward the leaf apex and the proximal direction is from the band toward the leaf base. The percent of the disease-free zone relative to the entire distance between the band and leaf apex or base is calculated. If disease is noticeably lighter in the distal or proximal area this is also noted.
• 1. […]

## COc1cc(C)c(C(=O)c2c(C)cccc2OC)c(OC)c1OC [Example 1, 6,6'-dimethyl-2,2',3',4'-tetramethoxy-benzophenone]
% disease control in translaminar band area, wheat variety Kanzler
  Translaminar Activity ( % ): 100%
disease-free zone on wheat leaf (variety Kanzler) from band toward leaf apex, 5 µl band, inoculated 2 days after application
  Distal Movement (mm from band): 50 mm
disease-free zone on wheat leaf (variety Kanzler) from band toward leaf base, 5 µl band, inoculated 2 days after application
  Proximal Movement (mm from band): 10 mm
